Source: ChEMBL document CHEMBL1136022, “Development of tripeptidyl farnesyltransferase inhibitors” (Bioorg Med Chem Lett, 2002)
Where a SMILES comes first, the peptide text is derived from it. The star is where a group is joined. Isovaleryl = CC(C)CC(=O)*; Isobutyryl = CC(C)C(=O)*; Octanoyl = CCCCCCCC(=O)*; Hexanoyl = CCCCCC(=O)*; PhAc = O=C(Cc1ccccc1)*; Bz = O=C(c1ccccc1)*

Columns and labels:
[1] = molecular target: Protein farnesyltransferase (Bos taurus) (UniProt P29702+P49355); assay: In vitro inhibition of bovine Farnesyltransferase at a 1 ug/mL.; assay type: protein-complex assay
[2] = molecular target: Protein farnesyltransferase (Bos taurus, UniProt P29702+P49355); assay: In vitro inhibition of bovine Farnesyltransferase.; assay type: protein-complex assay

inhibition [1]	IC50 [2]	Structure (SMILES)
69.3%	–	COC(=O)[C@H](Cc1cccc(OC(=O)c2ccccc2)c1)NC(=O)[C@@H](NC(=O)[C@@H](N)CS)C(C)C
16.3%	–	COC(=O)[C@H](COC(=O)/C=C/c1ccccc1)NC(=O)[C@@H](NC(=O)[C@@H](N)CS)C(C)C
75%	0.82 µM	COC(=O)[C@H](COC(=O)c1ccc(Cl)cc1)NC(=O)[C@@H](NC(=O)[C@@H](N)CS)C(C)C
69.3%	0.9 µM	COC(=O)[C@H](COC(=O)c1ccccc1)NC(=O)[C@@H](NC(=O)[C@@H](N)CS)C(C)C (H-Cys-Val-Ser(Bz)-OMe)
57%	1.8 µM	COC(=O)[C@H](COC(=O)c1ccc(OC)cc1)NC(=O)[C@@H](NC(=O)[C@@H](N)CS)C(C)C
12%	–	COC(=O)[C@H](Cc1cccc(OC(C)=O)c1)NC(=O)[C@@H](NC(=O)[C@@H](N)CS)C(C)C
38.6%	–	COC(=O)[C@H](COC(=O)C=C(C)C)NC(=O)[C@@H](NC(=O)[C@@H](N)CS)C(C)C
12.6%	43 µM	COC(=O)[C@H](Cc1ccc(OC(=O)/C=C/c2ccccc2)cc1)NC(=O)[C@@H](NC(=O)[C@@H](N)CS)C(C)C
23.4%	20 µM	COC(=O)[C@H](Cc1ccc(OC(=O)c2ccccc2)cc1)NC(=O)[C@@H](NC(=O)[C@@H](N)CS)C(C)C (H-Cys-Val-Tyr(Bz)-OMe)
67%	0.92 µM	COC(=O)[C@H](COC(=O)c1ccc(C)cc1)NC(=O)[C@@H](NC(=O)[C@@H](N)CS)C(C)C
17%	17 µM	COC(=O)[C@H](Cc1cccc(OC(=O)/C=C/c2ccccc2)c1)NC(=O)[C@@H](NC(=O)[C@@H](N)CS)C(C)C
–	5.8 µM	COC(=O)[C@H](CCSC)NC(=O)[C@H](Cc1ccccc1)NC(=O)[C@@H](NC(=O)[C@@H](N)CS)C(C)C

Second part, the compound before the results:

Structure (SMILES)	inhibition [1]	IC50 [2]
COC(=O)[C@H](Cc1ccc(OC(=O)CC(C)C)cc1)NC(=O)[C@@H](NC(=O)[C@@H](N)CS)C(C)C (H-Cys-Val-Tyr(Isovaleryl)-OMe)	74%	0.82 µM
COC(=O)[C@H](Cc1cccc(OC(=O)C=C(C)C)c1)NC(=O)[C@@H](NC(=O)[C@@H](N)CS)C(C)C	61%	8.4 µM
COC(=O)[C@H](Cc1cccc(OC(=O)C(C)C)c1)NC(=O)[C@@H](NC(=O)[C@@H](N)CS)C(C)C	30%	10 µM
COC(=O)[C@H](Cc1ccc(OC(=O)CC(C)CCCC(C)C)cc1)NC(=O)[C@@H](NC(=O)[C@@H](N)CS)C(C)C (some centres undefined)	10%	8.1 µM
COC(=O)[C@H](Cc1ccc(OC(=O)C(C)C)cc1)NC(=O)[C@@H](NC(=O)[C@@H](N)CS)C(C)C (H-Cys-Val-Tyr(Isobutyryl)-OMe)	26.7%	12 µM
COC(=O)[C@H](Cc1ccc(OC(C)=O)cc1)NC(=O)[C@@H](NC(=O)[C@@H](N)CS)C(C)C (H-Cys-Val-Tyr(Ac)-OMe)	6.3%	48 µM
CCCCCC(=O)Oc1ccc(C[C@H](NC(=O)[C@@H](NC(=O)[C@@H](N)CS)C(C)C)C(=O)OC)cc1 (H-Cys-Val-Tyr(Hexanoyl)-OMe)	42%	7.5 µM
COC(=O)[C@H](Cc1ccc(OC(=O)Cc2ccccc2)cc1)NC(=O)[C@@H](NC(=O)[C@@H](N)CS)C(C)C (H-Cys-Val-Tyr(PhAc)-OMe)	32%	–
COC(=O)[C@H](Cc1ccc(OC(=O)C=C(C)C)cc1)NC(=O)[C@@H](NC(=O)[C@@H](N)CS)C(C)C	79.6%	0.5 µM
CCCCCCCC(=O)Oc1ccc(C[C@H](NC(=O)[C@@H](NC(=O)[C@@H](N)CS)C(C)C)C(=O)OC)cc1 (H-Cys-Val-Tyr(Octanoyl)-OMe)	17%	22 µM
COC(=O)[C@H](CO)NC(=O)[C@@H](NC(=O)[C@@H](N)CS)C(C)C (H-Cys-Val-Ser-OMe)	0%	–
